Non-standard residues stand in square brackets, D forms with d. Residues, ends and D or L forms follow the SMILES beside them. pGlu = O=C1CC[C@@H](C(=O)O)N1
Assays:
[1] = tested on: Thoracic aorta; experiment: Vasorelaxant activity in Wistar rat endothelium-functional thoracic aorta assessed as reduction in phenylephrine-induced isometric contraction; type: tissue-based
[2] = tested on: Thoracic aorta; experiment: Vasorelaxant activity in Wistar rat endothelium-functional thoracic aorta assessed as reduction in phenylephrine-induced isometric contraction by measuring maximal efficacy relative to control

Structure (SMILES)	Activity [1]	Emax [2]
CC[C@H](C)[C@H](NC(=O)[C@H](CCC(=O)O)NC(=O)[C@@H]1CCCN1C(=O)CNC(=O)[C@@H]1CCCN1C(=O)[C@H](CCCNC(=N)N)NC(=O)[C@@H]1CCCN1C(=O)[C@H](Cc1c[nH]c2ccccc12)NC(=O)CNC(=O)CNC(=O)[C@@H]1CCC(=O)N1)C(=O)N1CCC[C@H]1C(=O)N1CCC[C@H]1C(=O)O ([pGlu]GGWPRPGPEIPP-OH)	Dose-Dependent Effect	18.3%
CC(C)[C@H](NC(=O)[C@H](CCCCN)NC(=O)[C@@H]1CCCN1C(=O)CNC(=O)[C@@H]1CCCN1C(=O)[C@H](Cc1c[nH]c2ccccc12)NC(=O)[C@H](CCCCN)NC(=O)[C@@H]1CCC(=O)N1)C(=O)N1CCC[C@H]1C(=O)N1CCC[C@H]1C(=O)O ([pGlu]KWPGPKVPP-OH)	Dose-Dependent Effect	37.5%
CC[C@H](C)[C@H](NC(=O)[C@H](CCC(=O)O)NC(=O)[C@@H]1CCCN1C(=O)CNC(=O)[C@@H]1CCCN1C(=O)[C@H](CCCNC(=N)N)NC(=O)[C@@H]1CCCN1C(=O)[C@H](Cc1c[nH]c2ccccc12)NC(=O)[C@H](CCCCN)NC(=O)[C@@H]1CCC(=O)N1)C(=O)N1CCC[C@H]1C(=O)N1CCC[C@H]1C(=O)O ([pGlu]KWPRPGPEIPP-OH)	Dose-Dependent Effect	32.8%

Source: ChEMBL document CHEMBL5385935, “Structural Characterization and Rat Aortic Vascular Reactivity of Bradykinin-Potentiating Peptides (BPPs) from the Snake Venom of Bothrops moojeni from Delta do Parnaíba Region, Brazil” (2024)
